Data published in patent US5129937A, “Pyridyloxypyrimidine derivatives, preparation process thereof, and herbicidal compositions containing the same as active ingredients” (Mitsui Toatsu Chemicals Incorporated, priority 1989, dated 1992).

Tests used:
[1] = system: Bulrush (Scirpus juncoides); experiment: Submerged Soil Treatment Test (Pre-Emergence Treatment); type: in vivo; details: 30 g ai/a, granule, observed 30 days later
Description: (§1) 1/5000-are Wagner pots were filled with soil. Seeds or tubers of barnyardgrass, bulrush and Sagittaria pygmaea were seeded or planted under submerged condition. Two pairs of rice seedlings (2-3 leaf stage), which had been reared in advance, were transplanted to each pot and were allowed to germinate in a green house. Each pair consisted of two rice seedlings. On day later (before emergence of weeds), each pot was treated with a granule which had been prepared by processing a predetermined amount of the test composition in accordance with a similar method to the method described in Formulation Example 9. The state of emergence of weeds and the state of injury of rice were observed 30 days later. In the table, the degrees of damages of the test plants and the degrees of injury of rice are shown in a similar manner to Example 2.

[2] = system: Arrowhead sp. (Sagittaria pygmaea); experiment: as above; type: in vivo; details: 30 g ai/a, granule, observed 30 days later
Description: as §1

[3] = system: Barnyardgrass (Echinochloa crus-galli); experiment: as above; type: in vivo; details: 30 g ai/a, granule, observed 30 days later
Description: as §1

Rice (Oryza sativa) [4] = experiment: Submerged Soil Treatment Test (Growth Stage Treatment), crop injury; type: in vivo; details: 30 g ai/a, growth stage treatment (barnyardgrass two-leaf stage), granule, transplanted rice, observed 30 days later
Description: as §1, with “allowed to grow in a” for “allowed to germinate in a”, “rice seedlings. When the barnyardgrass grew to the two-leaf stage, each pot” for “rice seedlings. On day later (before emergence of weeds), each pot”, “injury of the rice are” for “injury of rice are”

Johnsongrass = experiment: Upland Soil Application Test; type: in vivo; details: 30 g ai/a; soil application before emergence, wettable powder; observed 30 days later
Description: (§2) Resin-made 1/2500-are pots were filled with the soil of an upland field. After they were fertilized, soybean, corn and cotton were seeded and 2-3 cm soil covering was applied. Seeds of redroot pigweed, morningglory (Ipomoea purpurea), common lambsquarters, barnyardgrass, green foxtail, large crabgrass, foxtail meadow and johnsongrass had been uniformly mixed with the soil. They were allowed to germinate in a green house. One day later (before emergence of weeds), a wettable powder prepared from a predetermined amount of each test compound in a similar manner to the method described in Formulation Example 1 was diluted with water and then sprayed evenly at an application rate equal to 10 l per are onto the surface of the soil by means of a pressure-operated ULV (ultra low volume) sprayer. Influence to the crops and weeds were observed 30 days later. The results are shown in Table 3, in which the degree of damages of each test plant and the degree of injury to each crop were determined by comparing the air-dried weights of the test plant and crop with those of the corresponding plant and crop in untreated pots and are shown in accordance with the following standard: […]

Redroot Pigweed = experiment: Upland Soil Application Test; type: in vivo; details: 30 g ai/a; soil application before emergence, wettable powder; observed 30 days later
Description: as §2

[5] = system: Crabgrass (Digitaria adsendens); experiment: Upland Soil Application Test; type: in vivo; details: 30 g ai/a; soil application before emergence, wettable powder; observed 30 days later
Description: as §2

Common lambsquarters = experiment: Upland Soil Application Test; type: in vivo; details: 30 g ai/a; soil application before emergence, wettable powder; observed 30 days later
Description: as §2

[6] = system: Barnyardgrass (Echinochloa crus-galli); experiment: Upland Soil Application Test; type: in vivo; details: 30 g ai/a; soil application before emergence, wettable powder; observed 30 days later
Description: as §2

[7] = system: Foxtail (Setaria viridis); experiment: Upland Soil Application Test; type: in vivo; details: 30 g ai/a; soil application before emergence, wettable powder; observed 30 days later
Description: as §2

Foxtail meadow = experiment: Upland Soil Application Test; type: in vivo; details: 30 g ai/a; soil application before emergence, wettable powder; observed 30 days later
Description: as §2

Rice (Oryza sativa) [8] = experiment: Submerged Soil Treatment Test (Pre-Emergence Treatment), crop injury; type: in vivo; details: 30 g ai/a, granule, transplanted rice, observed 30 days later
Description: as §1

[9] = system: ALS (acetolactate synthase); experiment: ALS (Acetolactate Synthase) Inhibition Test, barnyardgrass enzyme; type: biochemical; details: enzymoreaction inhibition rate at 10 ppm (5 μg/0.5 ml)
Description: (§3) To determine the selectivity in enzyme level between crops and weeds, an ALS inhibition test was conducted using pea as a representative of broadleaf crops and barnyardgrass as a representative of gramineous weeds.
(§4) After seeds of pea and barnyardgrass were allowed to germinate at 25° C. for 8-14 days in a dark place, partially-purified suspensions (Suspensions A) of acetolactate syntase were separately obtained from seedlings in accordance with the method described in the literature, Plant Physiology, 75, 827-831. In a test tube, […], followed by the addition of 0.15 ml of a 20 mM K2 HPO4 solution and 0.25 ml of a reaction substrate medium which consisted of 40 mM of K2 HPO4, 40 mM of sodium pyruvate, 1 mM of TPP, 1 mM of MgCl2 and 20 μM of FAD so that 0.4 ml of a reaction solution (Solution B) was prepared. Added to 0.4 ml of Solution B was 0.1 ml of Suspension A. After the resultant mixture was shaken for 1 hour in a thermostat water bath controlled at 30° C., 50 μl of 6N sulfuric acid were added to terminate the reaction.
(§5) Next, the reaction-terminated liquid mixture was transferred into a thermostat water bath controlled at 60° C. and was heated for 15 minutes. Thereafter, 0.5 ml of a 0.5% creatine solution and 0.5 ml of a 5% alkaline α-naphthol solution were added, and the resultant mixture was maintained at 60° C. for 15 minutes. As a result, the test solution developed a pink-red color. After the above operation, the absorbance of the test solution at 525 nm was measured by a spectrophotometer (Absorbance 1 of Test Compound).
(§6) On the other hand, the absorbance (Absorbance 2 of Blank) of a solution obtained by subjecting a portion of Solution B, said portion being free of the test compound, to the above operation and the absorbance (Absorbance 3 of sulfuric acid terminated) of another solution obtained by subjecting another portion of Solution B, said portion containing 50 μl of 6N sulfuric acid as a test compound, were measured at the same time. […] [formula]

[10] = system: ALS (acetolactate synthase); experiment: ALS (Acetolactate Synthase) Inhibition Test, pea enzyme; type: biochemical; details: enzymoreaction inhibition rate at 10 ppm (5 μg/0.5 ml)
Description: as §3, §4, §5, §6

Corn (Zea maize) = experiment: Upland Soil Application Test, crop injury; type: in vivo; details: 30 g ai/a; soil application before emergence, wettable powder; observed 30 days later
Description: as §2

[11] = system: Cotton (Gossypium indicum); experiment: Upland Soil Application Test, crop injury; type: in vivo; details: 30 g ai/a; soil application before emergence, wettable powder; observed 30 days later
Description: as §2

Soybean (Glycine max) = experiment: Upland Soil Application Test, crop injury; type: in vivo; details: 30 g ai/a; soil application before emergence, wettable powder; observed 30 days later
Description: as §2

COc1cc(OC)nc(Oc2cccnc2C2OCCCO2)n1 [Compound No. 8]
86%: Inhibition rate (%) Barnyardgrass [9]
3 (11-40 (Medium damages)): Herbicidal effects Redroot Pigweed (Redroot Pigweed) | Herbicidal effects Crabgrass (Digitaria adsendens) [5] | Herbicidal effects Common lambquarters (Common lambsquarters) | Herbicidal effects Foxtail (Setaria viridis) [7]
0 (91-100 (No damages)): Crop injury Rice (Oryza sativa) (Rice (Oryza sativa) [4]) | Crop injury Rice (Oryza sativa) (Rice (Oryza sativa) [8]) | Crop injury Corn (Zea maize) (Corn (Zea maize)) | Crop injury Cotton (Gossypium indicum) [11] | Crop injury Soybean (Glycine max) (Soybean (Glycine max))
5 (0-5 (Death)): Herbicidal effects Barnyardgrass (Echinochloa crus-galli) [3]
4 (6-10 (Severe damages)): Herbicidal effects Bulrush (Scirpus juncoides) [1] | Herbicidal effects Arrowhead sp. (Sagittaria pygmaea) [2] | Herbicidal effects Johnsongrass (Johnsongrass) | Herbicidal effects Barnyardgrass (Echinochloa crus-galli) [6] | Herbicidal effects Foxtail meadow (Foxtail meadow)
0%: Inhibition rate (%) Pea [10]

COc1cc(OC)nc(Oc2ccccc2C=O)n1 [B, reference compound]
5 (0-5 (Death)): Herbicidal effects Arrowhead sp. (Sagittaria pygmaea) [2] | Crop injury Rice (Oryza sativa) (Rice (Oryza sativa) [4]) | Crop injury Rice (Oryza sativa) (Rice (Oryza sativa) [8]) | Crop injury Corn (Zea maize) (Corn (Zea maize)) | Crop injury Cotton (Gossypium indicum) [11] | Crop injury Soybean (Glycine max) (Soybean (Glycine max))
72%: Inhibition rate (%) Pea [10]
3 (11-40 (Medium damages)): Herbicidal effects Bulrush (Scirpus juncoides) [1] | Herbicidal effects Barnyardgrass (Echinochloa crus-galli) [3] | Herbicidal effects Redroot Pigweed (Redroot Pigweed) | Herbicidal effects Common lambquarters (Common lambsquarters) | Herbicidal effects Barnyardgrass (Echinochloa crus-galli) [6]
4 (6-10 (Severe damages)): Herbicidal effects Johnsongrass (Johnsongrass) | Herbicidal effects Crabgrass (Digitaria adsendens) [5] | Herbicidal effects Foxtail (Setaria viridis) [7] | Herbicidal effects Foxtail meadow (Foxtail meadow)
98%: Inhibition rate (%) Barnyardgrass [9]

CCOC(OCC)c1ncccc1Oc1nc(OC)cc(OC)n1 [Compound No. 3, 3-(4,6-dimethoxy-2-pyrimidinyloxy)-2-pyridinecarboxaldehyde diethylacetal]
0%: Inhibition rate (%) Pea [10]
0 (91-100 (No damages)): Crop injury Rice (Oryza sativa) (Rice (Oryza sativa) [4]) | Crop injury Rice (Oryza sativa) (Rice (Oryza sativa) [8]) | Crop injury Corn (Zea maize) (Corn (Zea maize)) | Crop injury Cotton (Gossypium indicum) [11] | Crop injury Soybean (Glycine max) (Soybean (Glycine max))
5 (0-5 (Death)): Herbicidal effects Bulrush (Scirpus juncoides) [1] | Herbicidal effects Arrowhead sp. (Sagittaria pygmaea) [2] | Herbicidal effects Barnyardgrass (Echinochloa crus-galli) [3] | Herbicidal effects Johnsongrass (Johnsongrass) | Herbicidal effects Redroot Pigweed (Redroot Pigweed) | Herbicidal effects Common lambquarters (Common lambsquarters) | Herbicidal effects Foxtail meadow (Foxtail meadow)
4 (6-10 (Severe damages)): Herbicidal effects Crabgrass (Digitaria adsendens) [5] | Herbicidal effects Barnyardgrass (Echinochloa crus-galli) [6] | Herbicidal effects Foxtail (Setaria viridis) [7]
84%: Inhibition rate (%) Barnyardgrass [9]

COc1cc(OC)nc(Oc2cccnc2C(OC)OC)n1 [Compound No. 2, 3-(4.6-dimethoxy-2-pyrimidinyloxy)-2-pyridinecarboxaldehyde dimethylacetal]
0 (91-100 (No damages)): Crop injury Rice (Oryza sativa) (Rice (Oryza sativa) [4]) | Crop injury Rice (Oryza sativa) (Rice (Oryza sativa) [8]) | Crop injury Corn (Zea maize) (Corn (Zea maize)) | Crop injury Cotton (Gossypium indicum) [11] | Crop injury Soybean (Glycine max) (Soybean (Glycine max))
4 (6-10 (Severe damages)): Herbicidal effects Redroot Pigweed (Redroot Pigweed) | Herbicidal effects Barnyardgrass (Echinochloa crus-galli) [6]
5 (0-5 (Death)): Herbicidal effects Bulrush (Scirpus juncoides) [1] | Herbicidal effects Arrowhead sp. (Sagittaria pygmaea) [2] | Herbicidal effects Barnyardgrass (Echinochloa crus-galli) [3] | Herbicidal effects Johnsongrass (Johnsongrass) | Herbicidal effects Crabgrass (Digitaria adsendens) [5] | Herbicidal effects Common lambquarters (Common lambsquarters) | Herbicidal effects Foxtail (Setaria viridis) [7] | Herbicidal effects Foxtail meadow (Foxtail meadow)
81%: Inhibition rate (%) Barnyardgrass [9]
0%: Inhibition rate (%) Pea [10]

CCCCOC(OCCCC)c1ncccc1Oc1nc(OC)cc(OC)n1 [Compound No. 4]
94%: Inhibition rate (%) Barnyardgrass [9]
5 (0-5 (Death)): Herbicidal effects Bulrush (Scirpus juncoides) [1] | Herbicidal effects Arrowhead sp. (Sagittaria pygmaea) [2] | Herbicidal effects Barnyardgrass (Echinochloa crus-galli) [3] | Herbicidal effects Johnsongrass (Johnsongrass) | Herbicidal effects Redroot Pigweed (Redroot Pigweed) | Herbicidal effects Crabgrass (Digitaria adsendens) [5] | Herbicidal effects Common lambquarters (Common lambsquarters) | Herbicidal effects Barnyardgrass (Echinochloa crus-galli) [6] | Herbicidal effects Foxtail (Setaria viridis) [7] | Herbicidal effects Foxtail meadow (Foxtail meadow)
0 (91-100 (No damages)): Crop injury Rice (Oryza sativa) (Rice (Oryza sativa) [4]) | Crop injury Rice (Oryza sativa) (Rice (Oryza sativa) [8]) | Crop injury Corn (Zea maize) (Corn (Zea maize)) | Crop injury Cotton (Gossypium indicum) [11] | Crop injury Soybean (Glycine max) (Soybean (Glycine max))
0%: Inhibition rate (%) Pea [10]
